Consider 15 molecules from US9266820B2, “Nitric oxide donor compounds” (NICOX S.A., priority 2007, dated 2016).

As usually defined, the IC50 is the concentration at which inhibition is half-maximal.

Where a name gives a salt, the structure may show the parent alone. Read-outs that look alike come from different tables or passages of the source.

This test deals with isolated rabbit thoracic aorta preparations. In words: vasorelaxant activity in isolated rabbit thoracic aorta preparations precontracted with noradrenaline. The class given is cell-based. The following applies: read-out: IC50 (μM) ± sem. Here is the method:
The ability of the compounds of the present invention to release nitric oxide was assessed testing their vasorelaxant activity in isolated rabbit thoracic aorta preparations (Wanstall J. C. et al., Br. J. Pharmacol., 134:463-472, 2001).
Male New Zealand rabbits were anaesthetized with thiopental-Na (50 mg/kg, iv), sacrificed by exsanguinations and then the thorax was opened and the aorta dissected. Single ring preparations (4 mm in length) of thoracic aorta were set up in physiological salt solution (PSS) at 37° C. in small organ chambers (5 ml). The composition of PSS was (mM): NaCl 130, NaHCO3 14.9, KH2PO4 1.2, MgSO4 1.2, HEPES 10, CaCl2, ascorbic acid […] and glucose 1.1 (95%)2/5% CO2; pH 7.4). Each ring was mounted under 2 g passive tension in 5 ml organ bath. Isometric tension was recorded with a Grass transducer (Grass FT03) attached to a BIOPAC MP150 System. Preparations were allowed to equilibrate for 1 h, then contracted submaximally with noradrenaline (NA, 1 μM) and, when the contraction was stable, acetylcholine (ACh, 10 μM) was added. A relaxant response to ACh indicated the presence of a functional endothelium. When a stable precontraction was reached, a cumulative concentration-response curve to either of the vasorelaxant agents was obtained in the presence of a functional endothelium. Time intervals between different concentrations were based on the time needed to reach a full response.
Moreover, the nitric oxide-dependent vascular relaxation elicited by the tested compounds was examined preincubating the aortic rings with the soluble guanylyl cyclase inhibitor ODQ (1H-(1,2,4)-oxadiazol(4,3-a)quinoxalin-1-one) at 10 μM for 20 min. Responses to vasorelaxing agents were measured from the plateau of NA contraction. The IC50 (concentration giving 50% reversal of NA contraction) was interpolated from the plots of relaxant-response vs log molar concentration of tested compound.
During the experimental period, the plateau obtained with NA was stable without significant spontaneous loss of contraction in the aortic rings.

The mark [1] stands for this setting: Oryctolagus cuniculus, concentration giving 50% reversal of NA (1 μM) contraction, aortic rings with functional endothelium.
Where [2] appears, read: concentration giving 50% reversal of NA (1 μM) contraction, aortic rings with functional endothelium.

Turning to `CC(C)(C)OC(=O)N1CCCC1C(=O)OCc1ccc(CO[N+](=O)[O-])cc1` (stereo not drawn) [Compound 7, 1-tert-Butyl 2-(4-(nitrooxymethyl)benzyl)pyrrolidine-1,2-dicarboxylate], the IC50 under setting [1] worked out at 2.4 ± 0.5 µM.
Consider `CC(C)(C)OC(=O)N1CCCC1C(=O)Oc1cccc(CO[N+](=O)[O-])c1` (stereo not drawn) [Compound 8], for which, under setting [2], the IC50 was 2.6 ± 0.6 µM.
On the same count and under the same terms, with `CC(C)(C)OC(=O)N1CCCC1C(=O)OCCOCCO[N+](=O)[O-]` (stereo not drawn) [Compound 9] the figure was 4.5 ± 1.4 µM.
Consider `CC(C)(C)OC(=O)NCC(=O)NCCCCO[N+](=O)[O-]` [Compound 12, tert-butyl 2-(4-(nitrooxy)butylamino)-2-oxoethylcarbamate], for which, under setting [1], the IC50 amounted to 10.2 ± 4.2 µM.
The same measure, in the same setting: as for `CC(C)(C)OC(=O)NC(CCc1ccccc1)C(=O)OCc1ccc(CO[N+](=O)[O-])cc1` (stereo not drawn) [Compound 13, 4-[(Nitrooxy)methyl]benzyl 2-(tert-butoxycarbonylamino)-4-phenylbutanoate], the figure is 10.2 ± 0.5 µM.
Still for that read-out and setting: as for `CC(C)(C)OC(=O)N[C@@H](Cc1ccccc1)C(=O)OCCCCO[N+](=O)[O-]` [Compound 15, (S)-4-(nitrooxy)butyl 2-(tert-butoxycarbonylamino)-3-phenylpropanoate], the figure is 12.6 ± 6.4 µM; as for `CC(C)(C)OC(=O)NC(CCc1ccccc1)C(=O)Oc1cccc(CO[N+](=O)[O-])c1` (stereo not drawn) [Compound 86, 3-[(Nitrooxy)methyl]phenyl 2-(tert-butoxycarbonylamino)-4-phenylbutanoate], 5.2 ± 0.9 µM.
On the same count and under the same terms, as for `CC(C)(C)OC(=O)NCC(=O)OCc1ccc(CO[N+](=O)[O-])cc1` [Compound 87, 4-[(nitrooxy)methyl]benzyl 2-(tert-butoxycarbonylamino)acetate], the figure is 2.1 ± 0.4 µM.
For the molecule `CC(C)(C)OC(=O)N[C@@H](Cc1ccccc1)C(=O)OCCCC[C@H](CO[N+](=O)[O-])O[N+](=O)[O-]` [Compound 123], for the setting “Oryctolagus cuniculus”, the IC50 is 0.64 ± 0.14 µM.
In the case of `NC(COC(=O)OCCCCO[N+](=O)[O-])C(=O)O` (stereo not drawn) [Compound 407, 2-amino-3-((4-(nitrooxy)butoxy)carbonyloxy)propanoic acid hydrochloride], the IC50 (Oryctolagus cuniculus) came out at 16 ± 6.4 µM.
Take `CC(C)(C)OC(=O)NCCOC(=O)CCCO[N+](=O)[O-]` [Compound 508, 2-(tert-butoxycarbonylamino)ethyl 4-(nitrooxy)butanoate]: the IC50 under setting [1] turned out to be 4.4 ± 0.7 µM.
On the same count and under the same terms, with `CC(C)(C)OC(=O)N[C@H](COC(=O)CCCO[N+](=O)[O-])Cc1ccccc1` [Compound 511, (S)-2-(tert-butoxycarbonylamino)-3-phenylpropyl 4-(nitrooxy)butanoate] the figure was 9.5 ± 3.6 µM; with `CC(C)(C)OC(=O)N1CCCC1C(=O)OCCCCO[N+](=O)[O-]` (stereo not drawn) [Example 14, 1-tert-butyl 2-(4-(nitrooxy)butyl)pyrrolidine-1,2-dicarboxylate], 1.9 ± 0.4 µM; with `CC(C)(C)OC(=O)N1CCCC1C(=O)OCCCO[N+](=O)[O-]` (stereo not drawn) [Example 15, 1-tert-butyl 2-(3-(nitrooxy)propyl)pyrrolidine-1,2-dicarboxylate], 1.2 ± 0.33 µM.
Still for that read-out and setting: as for `CC(C)(C)OC(=O)NC(CCc1ccccc1)C(=O)OCCOCCO[N+](=O)[O-]` (stereo not drawn) [Example 21, 2-(2-(Nitrooxy)ethoxy)ethyl 2-(tert-butoxycarbonylamino)-4-phenylbutanoate], the figure is 8 ± 1.8 µM.
